{"source": "paper PMC6323428", "about": "“Elucidation of the Intestinal Absorption Mechanism of Loganin in the Human Intestinal Caco-2 Cell Model” (Evidence-based Complementary and Alternative Medicine : eCAM, 2018)", "key": {"[1]": {"assay": "Bidirectional transport across Caco-2 cell monolayers (concentration, time, pH, temperature; control without inhibitor)", "format": "in vitro ADME, human", "details": "human; for Papp A→B at 60 min, 20 µM: Caco-2, pH 7.4, loganin 20 μM, AP to BL", "description": "Cells were maintained in DMEM with 10% FBS, 1× nonessential amino acids, and 1× penicillin and streptomycin at 37°C with 5% CO2. Cells of passage 35-40 were used in this study to maintain relatively constant cellular phenotypes. The medium was replaced every 2-3 days during incubation. After reaching approximately 80% confluence, the cells were detached using 0.02% ethylenediaminetetraacetic acid (EDTA) and 0.05% trypsin at a density of 5.3×10^4 cells/cm^2 on a 60-mm plastic culture dish for the uptake experiment or a 12-mm polyester membrane insert in a 12-well plate for the permeation experiment. The media in the culture plates were changed every two days for the first week after seeding and replaced daily afterward. The integrity of the cell monolayers was examined by measuring the transepithelial electrical resistance (TEER) with a Millicell-ERS-electrode (Millipore Corp, Billerica, MA, USA). After 21-23 days, monolayers with a TEER value (TEER=[TEERtest- TEERbackground]×area) above 500Ωcm^2 were used during the transport experiments.\n(§1) Before the experiments, the human intestinal Caco-2 cell monolayers were washed twice with HBSS medium (pH 7.4). The transport experiments were conducted by adding the drug solutions (containing 1% DMSO) to either the apical (AP, 0.5 mL) or basolateral side (BL, 1.0 mL), while the receiving chamber contained the corresponding volume of blank HBSS medium. The monolayers were incubated at 37°C, and 50 μL samples were taken at 15, 30, 45, 60, 90, and 120 min from the acceptor compartment, and the volume was then immediately replaced with50 μL of fresh, prewarmed blank HBSS. TEER measurements for assessing the membrane integrity took place before and after the experiment. The samples were frozen immediately and stored below −80°C before analysis.\nThe loganin transport (20 μM) at 4°C and 37°C was evaluated in the AP to BL direction to investigate the effect of temperature. The effect of pH on the loganin transport (20 μM) in the AP to BL direction was studied using the following pH combinations for the HBSS in the acceptor/donor compartments: 6.0/7.4 and 7.4/7.4.\n(§2) UPLC-MS/MS data acquisition was performed using Analyst 1.5.2 and MultiQuant 2.1.1 software (Applied Biosystems). The data were analyzed by SPSS Software. The apparent permeability coefficient (Papp) was calculated according to Papp = (dQ/dt)/(A·C0)\n(§3) where dQ/dt is the steady-state flux (nmol/s), A is the surface area of the insert (cm^2); C0 is the initial concentration. The efflux ratio (P) was determined by calculating the ratio of PappBA versus PappAB as in(1) P=PappBA/PappAB Statistical analysis was performed with analysis of variance (ANOVA) after confirmation of normal distributions."}, "P-glycoprotein (P-gp) [2]": {"molecular_target": "T1, P-glycoprotein (P-gp) (Homo sapiens, UniProt P08183)", "T1 construct": "endogenous in cells; host or cells: Caco-2 monolayers", "T1 sequence (P08183 whole entry)": "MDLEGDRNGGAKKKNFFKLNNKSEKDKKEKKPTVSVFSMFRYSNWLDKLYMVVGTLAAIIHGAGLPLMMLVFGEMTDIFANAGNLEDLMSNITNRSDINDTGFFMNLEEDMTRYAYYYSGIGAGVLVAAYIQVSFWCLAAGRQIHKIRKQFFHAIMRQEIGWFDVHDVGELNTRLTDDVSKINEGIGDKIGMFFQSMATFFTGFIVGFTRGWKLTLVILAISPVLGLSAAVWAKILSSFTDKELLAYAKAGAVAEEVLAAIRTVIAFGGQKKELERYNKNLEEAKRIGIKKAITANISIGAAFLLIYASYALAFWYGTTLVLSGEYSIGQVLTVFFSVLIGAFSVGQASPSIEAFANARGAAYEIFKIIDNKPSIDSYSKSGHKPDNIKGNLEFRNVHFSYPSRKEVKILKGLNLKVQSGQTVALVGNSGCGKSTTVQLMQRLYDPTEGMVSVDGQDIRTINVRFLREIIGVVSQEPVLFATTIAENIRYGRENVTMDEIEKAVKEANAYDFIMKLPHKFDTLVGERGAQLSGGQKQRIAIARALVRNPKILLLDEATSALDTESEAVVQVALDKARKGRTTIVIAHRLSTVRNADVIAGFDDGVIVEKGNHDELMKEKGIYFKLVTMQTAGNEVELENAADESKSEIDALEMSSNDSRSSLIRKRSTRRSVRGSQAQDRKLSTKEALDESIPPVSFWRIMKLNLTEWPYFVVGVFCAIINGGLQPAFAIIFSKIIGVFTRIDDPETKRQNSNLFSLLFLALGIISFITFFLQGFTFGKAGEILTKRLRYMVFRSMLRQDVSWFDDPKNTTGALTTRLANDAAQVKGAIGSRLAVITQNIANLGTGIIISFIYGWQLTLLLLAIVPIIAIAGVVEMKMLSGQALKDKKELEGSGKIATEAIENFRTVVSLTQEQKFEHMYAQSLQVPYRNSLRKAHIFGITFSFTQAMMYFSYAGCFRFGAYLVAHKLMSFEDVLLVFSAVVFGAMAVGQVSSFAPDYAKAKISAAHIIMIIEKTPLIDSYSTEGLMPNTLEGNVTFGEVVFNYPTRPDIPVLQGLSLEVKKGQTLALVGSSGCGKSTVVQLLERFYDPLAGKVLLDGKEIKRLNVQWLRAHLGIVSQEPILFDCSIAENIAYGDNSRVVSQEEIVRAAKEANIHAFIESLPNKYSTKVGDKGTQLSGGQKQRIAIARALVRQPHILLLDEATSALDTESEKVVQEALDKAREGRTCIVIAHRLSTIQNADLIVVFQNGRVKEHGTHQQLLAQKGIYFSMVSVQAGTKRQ", "assay": "Loganin transport across Caco-2 monolayers with P-gp inhibitor verapamil", "format": "in vitro ADME", "description": "as §1\n(§4) Several efflux and influx transporters were investigated for their effects on the transport flux of loganin. One hundred μM verapamil was added to evaluate the selectivity of P-glycoprotein (P-gp); inhibiting the efflux by multidrug resistance-associated proteins (MRPs) was undertaken by adding 100μM MK571, 50μM benzbromarone, and 200μM indomethacin [21–23]; 25 μM apigenin was used to investigate breast cancer resistance protein (BCRP); 50 μM sodium vanadate and cimetidine were used as Na^+/K^+pump and […] inhibitors.\nas §2, §3"}, "P-glycoprotein (P-gp) [3]": {"system": "T2, P-glycoprotein (P-gp)", "T2 construct": "endogenous in cells; host or cells: Caco-2 monolayers", "assay": "Loganin transport across Caco-2 monolayers with P-gp inhibitor verapamil", "format": "in vitro ADME, human", "details": "human, Caco-2, pH 7.4; with verapamil 100 μM, loganin 20 μM, n = 3", "description": "as §1, §4, §2, §3"}, "[4]": {"system": "human intestinal Caco-2 cells", "assay": "MTT cytotoxicity (cell viability) assay", "format": "cell-based", "details": "for Survival Rates: n = 5, mean ± SD", "description": "Cell viability was assessed using an MTT assay. Briefly, 0.1 mL of human intestinal Caco-2 cells was seeded onto 96-well plates at a density of 1×10^5 cells per well in a 96-well plate. The cells were grown in an atmosphere with 5% CO2 and 95% relative humidity over approximately 48 h. Subsequently, the culture medium was replaced with HBSS containing different concentrations of loganin (0.1-200 μM); the final concentration of dimethyl sulfoxide (DMSO) in HBSS remained at <1%. The negative control was HBSS containing 1% DMSO. […] Then, 0.2 mL of 0.5mg/mL MTT solution was added to each well and incubated for 4 h in dark. The medium was then removed, the MTT-formazan crystals were solubilized by incubating with 150 μL of DMSO with gentle shaking for 10 min, and absorbance was determined at 490 nm in a Multiskan Spectrum microplate reader (Thermo Labsystems, MA, USA). In each MTT assay, every sample was tested in five replicates and the viability of the nontreated control cells was arbitrarily defined as 100%."}, "BCRP [5]": {"system": "T3, BCRP", "T3 construct": "endogenous in cells; host or cells: Caco-2 monolayers", "assay": "Loganin transport across Caco-2 monolayers with BCRP inhibitor apigenin", "format": "in vitro ADME, human", "parameters": "key to Modulatory effect: +: Indicates that the inhibitor has significant effect on the loganin transport", "details": "human, Caco-2, pH 7.4; with apigenin 25 μM, loganin 20 μM, n = 3", "description": "as §1, §4, §2, §3"}, "BCRP [6]": {"molecular_target": "T4, BCRP (Homo sapiens, UniProt Q9UNQ0)", "T4 construct": "endogenous in cells; host or cells: Caco-2 monolayers", "T4 sequence (Q9UNQ0 1-655)": "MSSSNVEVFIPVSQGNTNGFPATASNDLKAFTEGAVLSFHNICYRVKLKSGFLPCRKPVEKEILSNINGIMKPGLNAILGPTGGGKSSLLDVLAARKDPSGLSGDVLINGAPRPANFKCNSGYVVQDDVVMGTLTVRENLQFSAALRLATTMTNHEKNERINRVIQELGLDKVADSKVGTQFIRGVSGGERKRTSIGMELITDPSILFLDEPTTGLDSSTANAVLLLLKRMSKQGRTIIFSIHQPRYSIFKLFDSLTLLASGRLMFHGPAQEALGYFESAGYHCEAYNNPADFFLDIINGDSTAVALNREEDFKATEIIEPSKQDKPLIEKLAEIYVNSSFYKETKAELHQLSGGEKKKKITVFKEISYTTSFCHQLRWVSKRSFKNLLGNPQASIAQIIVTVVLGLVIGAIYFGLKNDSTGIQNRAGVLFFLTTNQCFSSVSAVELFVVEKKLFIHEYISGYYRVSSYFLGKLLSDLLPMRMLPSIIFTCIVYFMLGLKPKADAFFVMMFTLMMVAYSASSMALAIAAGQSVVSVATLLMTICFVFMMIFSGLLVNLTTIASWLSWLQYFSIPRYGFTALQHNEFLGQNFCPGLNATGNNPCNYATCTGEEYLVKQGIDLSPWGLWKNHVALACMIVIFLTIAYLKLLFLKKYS", "assay": "Loganin transport across Caco-2 monolayers with BCRP inhibitor apigenin", "format": "in vitro ADME", "parameters": "key to Modulatory effect: +: Indicates that the inhibitor has significant effect on the loganin transport", "description": "as §1, §4, §2, §3"}, "[7]": {"parameters": "method as in PMID 35540372", "details": "rats; cited from earlier work"}, "[8]": {"details": "Caco-2, pH 7.4, control, no inhibitor, loganin 20 μM, n = 3"}}, "note": "Entries after “also recorded” stand apart in the source; their conditions may differ.", "data": [{"compound": "COC(=O)C1=CO[C@@H](O[C@@H]2O[C@H](CO)[C@@H](O)[C@H](O)[C@H]2O)[C@@H]2[C@@H](C)[C@@H](O)C[C@H]12", "note": "[loganin, Loganin]", "values": [{"measurement": "Papp A→B at 60 min, 20 µM", "setting": "[1]; 4°C", "value": 7.12, "unit": "×10⁻⁶ cm/s"}, {"measurement": "Papp A→B at 60 min, 20 µM", "setting": "[1]; 37°C", "value": 11.3, "unit": "×10⁻⁶ cm/s"}, {"measurement": "Papp A→B at 120 min, 20 μM", "setting": "[1]; [8]", "value": "13 ± 0.7", "unit": "×10⁻⁶ cm/s"}, {"measurement": "Papp B→A at 120 min, 20 μM", "setting": "[1]; [8]", "value": "11.7 ± 0.9", "unit": "×10⁻⁶ cm/s"}, {"measurement": "efflux ratio at 120 min, 20 μM", "setting": "[1]; Caco-2, pH 7.4, control, no inhibitor, loganin 20 μM, read-out: P (efflux ratio PappBA/PappAB)", "value": 0.9}, {"measurement": "Papp A→B at 120 min", "setting": "[1]; Caco-2, pH 7.4, range over 5, 20, 40 and 80 μM loganin, read-out: Absorptive permeability PappAB (AP to BL)", "value": "12.2 to 14.8", "unit": "×10⁻⁶ cm/s"}, {"measurement": "Papp B→A at 120 min", "setting": "[1]; Caco-2, pH 7.4, range over 5, 20, 40 and 80 μM loganin, read-out: Secretory permeability PappBA (BL to AP)", "value": "11.1 to 13", "unit": "×10⁻⁶ cm/s"}, {"measurement": "efflux ratio at 120 min, 20 μM", "setting": "P-glycoprotein (P-gp) [2]; human, Caco-2, pH 7.4, with verapamil 100 μM, read-out: P (efflux ratio PappBA/PappAB)", "value": 0.84}, {"measurement": "Substrate of P-gp (in words)", "setting": "P-glycoprotein (P-gp) [2]; judged from verapamil vs control", "value": "not the substrate; also recorded: not a substrate"}, {"measurement": "PappAB difference between verapamil and control groups (in words)", "setting": "P-glycoprotein (P-gp) [2]; verapamil 100 μM", "value": "insignificant"}, {"measurement": "PappAB", "setting": "P-glycoprotein (P-gp) [2]; with verapamil 100 μM, loganin 20 μM, n = 3", "value": "11.1±1.7 ×10^−6cm/s"}, {"measurement": "Papp B→A at 120 min, 20 μM", "setting": "P-glycoprotein (P-gp) [3]", "value": "9.3 ± 1.7", "unit": "×10⁻⁶ cm/s"}, {"measurement": "Survival Rates", "setting": "[4]; loganin 0.1 μM, MTT", "value": "107.66±10.9", "unit": "%"}, {"measurement": "Survival Rates", "setting": "[4]; loganin 1 μM, MTT", "value": "108.73±25.4", "unit": "%"}, {"measurement": "Survival Rates", "setting": "[4]; loganin 5 μM, MTT", "value": "106.57±8.3", "unit": "%"}, {"measurement": "Survival Rates", "setting": "[4]; loganin 10 μM, MTT", "value": "106.22±10.9", "unit": "%"}, {"measurement": "Survival Rates", "setting": "[4]; loganin 50 μM, MTT", "value": "103.45±3.3", "unit": "%"}, {"measurement": "Survival Rates", "setting": "[4]; loganin 100 μM, MTT", "value": "101.45±6.5", "unit": "%"}, {"measurement": "Inhibition of Caco-2 cells", "setting": "[4]; loganin 200 μM, MTT", "value": 4.67, "unit": "%"}, {"measurement": "Survival Rates", "setting": "[4]; loganin 200 μM, MTT", "value": "95.33±5.3", "unit": "%"}, {"measurement": "Toxicity to Caco-2 cells (in words)", "setting": "[4]; loganin 0.1 to 100 μM, after 4 h exposure (so in the source)", "value": "nontoxic"}, {"measurement": "Papp A→B at 120 min, 20 μM", "setting": "BCRP [5]", "value": "30.1 ± 6.2", "unit": "×10⁻⁶ cm/s"}, {"measurement": "Papp B→A at 120 min, 20 μM", "setting": "BCRP [5]", "value": "12.3 ± 2.5", "unit": "×10⁻⁶ cm/s"}, {"measurement": "efflux ratio at 120 min", "setting": "BCRP [6]; human, Caco-2, pH 7.4, with apigenin 25 μM, read-out: P (efflux ratio PappBA/PappAB)", "value": 0.41}, {"measurement": "Substrate of BCRP (in words)", "setting": "BCRP [6]; judged from apigenin vs control", "value": "substrate"}, {"measurement": "Modulatory effect", "setting": "BCRP [6]; with apigenin 25 μM", "value": "+"}, {"measurement": "Oral bioavailability (in words)", "setting": "[7]", "value": "low"}]}]}
